Measurements published in US20220257595A1, “MACITENTAN FOR USE IN TREATING PORTOPULMONARY HYPERTENSION” (ACTELION PHARMACEUTICALS LTD, priority 2019, published 2022).

Test system: patients with PoPH
Test: PORTICO safety: hematology (platelets, lymphocytes, neutrophils)
Type: in vivo
Description: For the evaluation of treatment-emergent safety endpoints in the DB phase, the observation period for each individual subject started at the time of the first administration of macitentan or placebo and ended with the start of OL treatment or 30 days after DB treatment discontinuation (whichever occurred first). The safety variables listed below apply to the DB treatment-emergent period and the macitentan treatment-emergent period. The DB treatment-emergent period was defined as the period from the DB treatment start date up to the EOT-DB+30 days or to the EOT-DB for patients entering OL. The macitentan treatment-emergent period was defined as the period from the first intake of macitentan up to end of macitentan treatment (EOMT)+30 days. EOMT was defined as EOT-DB (for patient who received macitentan only in the DB period) or EOT-OL when applicable. For patients entering OLE, the EOMT is EOT-OL. • Treatment-emergent AEs • Treatment-emergent deaths • Treatment-emergent serious adverse events (SAEs) • AEs leading to premature discontinuation of study treatment • Occurrence of post-baseline LFT (ALT and/or AST) abnormalities, classified as: • ≥3×ULN; • ≥5×ULN; • ≥8×ULN; • ≥3×ULN and <5×ULN; • […] and <8×ULN. • Occurrence of post-baseline ALT and/or AST abnormality 3×ULN and concomitant (i.e., at the same time) total bilirubin ≥2×ULN • Occurrence of post-baseline ALT and/or AST abnormality ≥3×ULN and concomitant (i.e., at the same time) total bilirubin ≥2×ULN and increased as compared to baseline • Occurrence of hemoglobin abnormalities, classified as: • ≤80 g/L, • >80 and ≤100 g/L, • decrease from baseline ≥20 g/L and <50 g/L, • decrease from baseline ≥50 g/L, • <100 g/L and concurrent (i.e., at the same time) decrease from baseline ≥20 g/L. • Other treatment-emergent marked laboratory abnormalities • Change from baseline/macitentan baseline to EOT-DB/EOMT in vital signs • Change from baseline/macitentan baseline to EOT-DB/EOMT in laboratory variables • Change from baseline/macitentan baseline to EOT-DB/EOMT in Child-Pugh classification • Change from baseline/macitentan baseline to EOT-DB/EOMT in MELD score

[1] = LL at baseline, DB phase, Safety set, 10 mg
[2] = LL at baseline, macitentan DB + OL phase, Macitentan treated set
[3] = Normal at baseline, DB phase, Safety set, 10 mg
[4] = Normal at baseline, macitentan DB + OL phase, Macitentan treated set

## CCCNS(=O)(=O)Nc1ncnc(OCCOc2ncc(Br)cn2)c1-c1ccc(Br)cc1 [macitentan, N-[5-(4-Bromophenyl)-6-[2-[(5-bromo-2-pyrimidinyl)oxy]ethoxy]-4-pyrimidinyl]-N′-propylsulfamide]
DB phase, macitentan group
  Median decrease in lymphocyte count, baseline to Week 12: 2.8e+08 L⁻¹
  Median decrease in neutrophil count, baseline to Week 12: 7.2e+08 L⁻¹
  Median decrease in platelets at Week 12: 1.1e+10 L⁻¹
  Median lymphocyte count at Week 12: 1.04e+09 L⁻¹
  Median neutrophil count at Week 12: 2.25e+09 L⁻¹
  Patients with neutrophil decreases from normal at baseline to <1.5×10^9/L: 6/41
  Patients with normal platelets at baseline decreasing to <75×10^9/L: 2/29
[1]
  Leukocytes (10^9/L) <2.0 (LLL), worst treatment-emergent marked abnormality: 2/5
  Lymphocytes (10^9/L) <0.5 (LLL), worst treatment-emergent marked abnormality: 3/5
  Neutrophils (10^9/L) <1.0 (LLL), worst treatment-emergent marked abnormality: 0/2
[2]
  Leukocytes (10^9/L) <2.0 (LLL), worst treatment-emergent marked abnormality: 3/7
  Lymphocytes (10^9/L) <0.5 (LLL), worst treatment-emergent marked abnormality: 6/10
  Neutrophils (10^9/L) <1.0 (LLL), worst treatment-emergent marked abnormality: 0/2
[3]
  Leukocytes (10^9/L) <2.0 (LLL), worst treatment-emergent marked abnormality: 0/38
  Leukocytes (10^9/L) <3.0 −≥ 2.0 (LL), worst treatment-emergent marked abnormality: 5/38
  Lymphocytes (10^9/L) <0.5 (LLL), worst treatment-emergent marked abnormality: 1/38
  Lymphocytes (10^9/L) <0.8 −≥ 0.5 (LL), worst treatment-emergent marked abnormality: 8/38
  Neutrophils (10^9/L) <1.0 (LLL), worst treatment-emergent marked abnormality: 2/41
  Neutrophils (10^9/L) <1.5 −≥ 1.0 (LL), worst treatment-emergent marked abnormality: 4/41
[4]
  Leukocytes (10^9/L) <2.0 (LLL), worst treatment-emergent marked abnormality: 4/76
  Leukocytes (10^9/L) <3.0 −≥ 2.0 (LL), worst treatment-emergent marked abnormality: 9/76
  Lymphocytes (10^9/L) <0.5 (LLL), worst treatment-emergent marked abnormality: 2/72
  Lymphocytes (10^9/L) <0.8 −≥ 0.5 (LL), worst treatment-emergent marked abnormality: 19/72
  Neutrophils (10^9/L) <1.0 (LLL), worst treatment-emergent marked abnormality: 5/81
  Neutrophils (10^9/L) <1.5 −≥ 1.0 (LL), worst treatment-emergent marked abnormality: 12/81
Any time during DB phase, macitentan group
  Patients with shifts in lymphocyte counts from normal at baseline to <0.8×10^9/L: 9/38
Combined DB+OL phase
  Median decrease from baseline in platelet counts: no median decrease
Macitentan DB+OL phase
  Median decrease in lymphocyte count, baseline to Week 24: 2.4e+08 L⁻¹
  Median decrease in neutrophil count, baseline to Week 24: 3.3e+08 L⁻¹
  Median lymphocyte count at Week 24: 1.05e+09 L⁻¹
  Median neutrophil count at Week 24: 2.4e+09 L⁻¹
  Patients with platelet decreases from normal at macitentan baseline to <75×10^9/L: 7 patients
  Patients with shifts in lymphocyte counts from normal at baseline to <0.8×10^9/L: 21/72
  Patients with shifts in neutrophil counts from normal at baseline to notably low: 17/81
